We go through one compound from patent US6998240B2, “Screen for selective inhibitors or activators of Smad protein function” (Wisconsin Alumni Research Foundation, priority 2001, dated 2006).

Test [1] has as its target T1, Smad2-P (Homo sapiens, UniProt Q15796).
T1 construct: Smad2; 1–467; pBlueBac; His; made in house; host or cells: Sf9 insect cells (baculovirus), co-infected with virus for membrane-targeted human Alk5 T204D
The experiment in a line: HTRF assay of biotin-FAST peptide binding to Smad2-P (competition). An excerpt:
(§1) To establish HTRF assays for Smad protein interactions, we have used reagents from Wallac-Perkin Elmer and Packard that include Europium-cryptate coupled to α-His epitope tag antibody, α-GST antibody or Streptavidin. As acceptor fluorophores we have used allophycocyanin (Packard's XL665) coupled to Streptavidin or direct labeling of GST-fusion protein with IC5 (Dojindo). Reagents are mixed in a 50 microliter volume in the wells of a 384 Black non-treated microwell plate (Corning) and HTRF detected in a Wallac Victor V multimode plate reader. The reader detects emission at 615 nm from the Europium chelate donor and at 665 nm from the APC or IC5 acceptor. Background, cross-talk and high FRET wells can be indicated on the plate map to allow the machine to compute a normalized value as a ratio Rn=(ET/D) Dmax where ET=A−BI−(C×D). • A—Fluorescence at 665 nm • BI—Blank (buffer only) at 665 nm • D—Fluorescence at 615 nm • C—Cross-talk correction value calculated from wells containing only donor fluorophore • (from “Quench Correction for LANCE TR-FRET” by Perkin-Elmer Wallace)
(§2) Over the past several months we have developed three HTRF assays for Smad binding interactions. All three assays use a Eu-chelate α-His epitope tag antibody as the donor. The antibody recognizes the hexahistidine epitope tag on the Smad proteins produced in the baculovirus expression system described above. As acceptors, we have used Streptavidin conjugated to allophycocyanin (Packard) that binds to biotinylated peptides. The peptides are synthesized to comprise the Smad interaction domain motif from human FAST or c-Jun (FIG. 3). The FAST 24-mer amino acid sequence is based on the homology between FAST, Mixer and Milk reported by Germain and colleagues (Germain, S., et al., supra, 2000). The24-mer C-JUN sequence is based on studies using deletions and gene fragments to define the Smad interaction motif (Zhang, Y., et al., supra, 1998; Liberati, N. T. et al., Proc. Natl. Acad. Sci. USA 96:4844–9, 1999). We also have developed an HTRF assay using IC5-GST-CBP, a fusion protein comprising the Smad interaction domain motif from CBP (a generous gift of Dr. Yigong Shi, Princeton University).
(§3) The assays are done in a 50 μl volume in the well of a 384-well plate. The assay buffer, as recommended by Packard for their HTRF reagents is 50 mM K-Hepes pH 7.0, 400 mM KF and 0.1% BSA. The high concentration of KF is recommended for the Eu(K) reagents from Packard. […] We have also optimized through many titrations the amount of Smad protein (220 ng/well, ˜4 pmoles per well of monomer), the concentration of biotinylated peptide (1 uMolar for FAST and C-JUN), the amount of Eu-anti-His tag antibody (36 ng/well) and the amount of Streptactin-APC (0.5 μg/well).
We used the FAST-SmadP HTRF assay described above. […] After 1 hr at room temperature, Streptavidin-APC was added to each well and 30 minutes later the fluorescence emissions at 615 nm and 665 nm were read in a PE-Wallac Victor V.
For orientation: TR-FRET usually uses a lanthanide donor and a delayed reading to cut background.

Test [2] deals with Phosphorylated Smad2/4 Complex (Homo sapiens, UniProt Q15796). The experiment in a line: 96 well microplate solid phase binding assay of GST-CBP to phosphorylated Smad2/4 complex. The arrangement: Smad2; 1–467; pBlueBac; His; Smad4; 1–552; Strep; Strep-tag; made in house. On the procedure: Table 7, below, tabulates the results of a 96 well Microplate Format Binding Assay of CBP to Smad2 and Phosphorylated Smad2/4 Complex. Duplicate wells are shown with indicated amounts of Smad protein bound per well. Three different dilutions of biotinylated GST-CBP protein were added per well and incubated at room temperture for 1 hour. Wells were washed 3× with TBS+1% tween and Alkaline phosphatase conjugated strepavidin (Tropix) added. Bound conjugate was detected by addition of the CSPD substrate (Tropix) and relative light units (RLU) measured in a Tropix 717 microplate reader at a read time of 1 second per well.

The target in test [3] is T1, Smad2-P. The experiment in a line: HTRF assay of IC5-GST-CBP binding to phosphorylated Smad2.
Excerpt: as §1, §2, §3
Table 5 contains data from using the GST-CBP fusion protein that is covalently coupled to the IC5 fluorophore acceptor through the cysteines in the GST portion of the fusion protein. There is no biotinylated peptide or Streptavidin-APC in these assays. […] The lower FRET counts could be due to larger distances between the donor and acceptor molecules in the complex. This might be overcome by using direct labeling of the Smad-P complex with Eu-cryptates rather than the Eu-labeled anti-His tag antibody.

Residues, ends and D or L forms follow the SMILES beside them.

In the case of `CC[C@H](C)[C@H](NC(=O)[C@H](CC(N)=O)NC(=O)[C@@H](NC(=O)[C@H](CCCNC(=N)N)NC(=O)[C@H](Cc1ccc(O)cc1)NC(=O)[C@H](CC(C)C)NC(=O)[C@H](Cc1c[nH]cn1)NC(=O)[C@H](CCC(N)=O)NC(=O)[C@H](CCC(N)=O)NC(=O)[C@H](CCC(N)=O)NC(=O)[C@H](CCC(N)=O)NC(=O)[C@H](C)NC(=O)[C@H](CCC(=O)O)NC(=O)[C@H](CCCNC(=N)N)NC(=O)[C@H](CCC(=O)O)NC(=O)[C@@H](NC(=O)[C@H](CCC(N)=O)NC(=O)[C@H](CCCNC(=N)N)NC(=O)[C@H](C)NC(=O)[C@H](C)NC(=O)[C@H](CCC(=O)O)NC(=O)[C@@H](NC(=O)[C@H](C)N)C(C)C)[C@@H](C)CC)C(C)C)C(N)=O` [CBP] (H-AVEAARQIEREAQQQQHLYRVNI-NH2; N-terminus assumed), the “competition for Biotin-FAST binding to Smad-2P (in words)” value at Smad2-P [1] is listed as “inability”. Besides, the “CBP bound by Smad-P complexes relative to an equivalent amount of unphosphorylated Smad” value in test [2] was more than 30 fold. For the same compound, the “competition for binding with the GST-CBP fusion protein (in words)” value on Smad2-P [3] was “can compete”. The “Average Normalized Counts” value was 587 on Smad2-P [3] (50 μM inhibitor peptide, IC5-GST-CBP binding to Smad2-P) and 478 on Smad2-P [3] (100 μM inhibitor peptide, IC5-GST-CBP binding to Smad2-P). The remaining activity at 50 µM on Smad2-P [3] (50 μM inhibitor peptide, IC5-GST-CBP binding to Smad2-P, read-out: Percent of Control (minus background)) stood at 70%. For the same compound, the remaining activity at 100 µM on Smad2-P [3] (100 μM inhibitor peptide, IC5-GST-CBP binding to Smad2-P, read-out: Percent of Control (minus background)) came to 51%. At Smad2-P [3] (read-out: concentration of peptide for 50% inhibition of GST-CBP binding), the IC50 was determined as 100 µM.
